Measured values from PubChem BioAssay AID2060896 (Molecular Pharmacology Branch, DTP, NCI, 2025).
Several values for one entry are separate records, joined by “and”; a condition that tells them apart may be missing. Identical values can stand only once.

Test system: 941728-121-R-J1-PDC complex spheroid viability
Assay: Anticancer human tumor 941728-121-R-J1-PDC patient-derived lung adenocarcinoma cell line growth inhibition [RAS]
Settings: for viability, T/C: stronger effect = lower value
Description: RAS pathway inhibitors in Combinations in Complex Spheroids
A high-throughput screen of multi-cell type tumor spheroids was designed to identify active combinations of RAS pathway inhibitors and targeted small molecules. Complex spheroids include a stromal component modeled by human endothelial cells (HUVEC) and fibroblasts modeled by human mesenchymal stem cells (MSCs). The concentration ranges selected for each drug and investigational agent were based upon clinically achievable concentrations if the clinical Cmax of the agent was known.
Compounds. The drugs and investigational agents: abemaciclib (NSC768073), cobimetinib (NSC768068), divarasib (GDC6063, NSC841802), docetaxel (NSC628503), GDC-1971 (RLY-1971, NSC841576), gemcitabine (NSC613327), inavolisib (NSC800729), ipatasertib (NSC767898), KB-0742 (NSC834161), MRTX-1133 (NSC836407), osimertinib (NSC779217), RMC-4630 (NSC839698), RMC-6236 (NSC851965), RMC-6291 (NSC852671), Ro-3306 (NSC812927), sapanisertib (NSC764658), SN-38 (NSC673596), staurosporine (NSC755774), SY5609 (NSC837396), and tovorafenib (DAY101, NSC766906), were obtained from the National Cancer Institute (NCI) Developmental Therapeutics Program Chemical Repository. The FDA-approved anticancer drug set is available from the NCI Developmental Therapeutics Program. […] The stock solutions were prepared in dimethyl sulfoxide (DMSO, Sigma-Aldrich, St. Louis, MO, cat. D2650) at 800-fold the tested concentration and stored at -70 degrees C prior to their use. All drugs and investigational agents were tested over a range starting from a high concentration at or near the clinical Cmax and decreasing in half-log increments. If the clinical Cmax for an agent had not been determined, the highest concentration tested was 10 microM.
Cell Culture. All cells were maintained in an incubator at 37 degrees C and 5% CO2 with 95% humidity. The PDC lines were cultured according to standard operating procedures established by the NCI PDMR. All PDCs were thawed and cultured in Matrigel-coated flasks prepared with a working solution of 1X Ham's F-12 nutrient mix, without supplementation (Invitrogen, Waltham, MA, cat. 11765054), 100 U/mL penicillin-streptomycin (Invitrogen, cat. 15140122), and 2.5% Matrigel (Corning Inc., Corning, NY, cat. 354248) for the first three passages. The 362531-283-R-J2-PDC and 782815-120-R-J1-PDC lines were cultured in 6C/Colon 1B media, which includes advanced DMEM/F-12 (Thermo Fisher Scientific, cat. 12634028), 10 mM HEPES (Thermo Fisher Scientific, cat. 15630080), 1X GlutaMAX supplement (Thermo Fisher Scientific, cat. 35050061), 0.1 mg/mL primocin (InvivoGen, San Diego, CA, cat. ant-pm-2), 10% defined fetal bovine serum, heat inactivated (HyClone Laboratories Inc., Logan, UT, cat. SH30070.03HI), 50% L-WRN conditioned media (ATCC, cat. CRL-3276), 1.25 mM N-Acetyl-L-cysteine (Sigma-Aldrich, cat. A9165), 10 mM nicotinamide (Sigma-Aldrich, cat. N0636), 1X B-27 supplement (Thermo Fisher Scientific, cat. 17504044), 1X N-2 supplement (Thermo Fisher Scientific, cat. 17502048), 50 ng/mL human EGF (Thermo Fisher Scientific, cat. PHG0311), and 10 microM Y-27632 dihydrochloride (Tocris Bioscience, cat. 1254). The K12877-001-R-J1-PDC line was cultured in 6I media, which includes all 6C/Colon 1B media plus 10 ng/mL human FGF-10 (PeproTech, cat. 100-26), 1 ng/mL human FGF-2 (PeproTech, cat. 100-18B), 1 µM prostaglandin E2 (Tocris Bioscience, cat. 2296), […] hydrocortisone (Sigma-Aldrich, cat. H4001), and […] bovine insulin (Sigma-Aldrich, cat. I6634). The K86415-001-R-J1-PDC line was cultured in 6D media, which includes all 6C/Colon 1B media components minus the L-WRN conditioned media. The 485176-168-R4-J1-PDC was cultured in PANC media, which includes all 6C/Colon 1B media plus 100 ng/mL human FGF-10 (PeproTech, cat. 100-26), 500 nM SB-431542 (Selleckchem, cat. S1067), and 10 nM gastrin (Tocris Bioscience, cat. 3006). […]
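Further: spheroids exposed to compounds for 7 days before readout.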
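Wherever viability, T/C is given: 100% = DMSO vehicle control viability.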

C[C@@H](NC(=O)c1ncnc(N)c1Cl)c1ncc(C(=O)Nc2cc(C(F)(F)F)c(Cl)cn2)s1
viability, T/C (compound 0.0316 µM): 114% [middle of 4 runs]
viability, T/C (compound 0.1 µM): 112% and 129% and 115% (2×)
viability, T/C (compound 0.316 µM): 120% [middle of 4 runs]
viability, T/C (compound 1 µM): 112% [middle of 4 runs]
viability, T/C (compound 3.16 µM): 83.2% [middle of 4 runs]
viability, T/C (compound 10 µM): 45.7% [middle of 4 runs]
IC50 (curve of compound): 8.88 µM [middle of 4 runs]

CC1(C)CCC(Nc2ncc(C(F)(F)F)c(-c3c[nH]c4c(P(C)(C)=O)c(C#N)ccc34)n2)CN1 (centres undefined) + CCn1c(-c2cccnc2C(C)OC)c2c3cc(ccc31)N1CCOC(CC(NC(=O)C(C(C)C)N(C)C(=O)C3(F)CCN(C(=O)C#CC(C)(C)N(C)C)CC3)C(=O)N3CCCC(N3)C(=O)OCC(C)(C)C2)C1
IC50 (curve of first compound, second compound 0.000949 µM): < 0.949 nM
IC50 (curve of first compound, second compound 0.003 µM): < 0.949 nM
IC50 (curve of first compound, second compound 0.00949 µM): < 0.949 nM
IC50 (curve of first compound, second compound 0.03 µM): < 0.949 nM
IC50 (curve of first compound, second compound 0.0949 µM): < 0.949 nM
IC50 (curve of first compound, second compound 0.3 µM): < 0.949 nM
viability, T/C (second compound 0.000949 µM, first compound 0.000949 µM): 21%
viability, T/C (second compound 0.000949 µM, first compound 0.003 µM): 20.7%
viability, T/C (second compound 0.000949 µM, first compound 0.00949 µM): 16.3%
viability, T/C (second compound 0.000949 µM, first compound 0.03 µM): 23.5%
viability, T/C (second compound 0.000949 µM, first compound 0.0949 µM): 24.3%
viability, T/C (second compound 0.000949 µM, first compound 0.3 µM): 15.7%
viability, T/C (second compound 0.003 µM, first compound 0.000949 µM): 25.2%
viability, T/C (second compound 0.003 µM, first compound 0.003 µM): 19.5%
viability, T/C (second compound 0.003 µM, first compound 0.00949 µM): 18.2%
viability, T/C (second compound 0.003 µM, first compound 0.03 µM): 22.9%
viability, T/C (second compound 0.003 µM, first compound 0.0949 µM): 22.2%
viability, T/C (second compound 0.003 µM, first compound 0.3 µM): 16.6%
viability, T/C (second compound 0.00949 µM, first compound 0.000949 µM): 21.4%
viability, T/C (second compound 0.00949 µM, first compound 0.003 µM): 20.2%
viability, T/C (second compound 0.00949 µM, first compound 0.00949 µM): 21.2%
viability, T/C (second compound 0.00949 µM, first compound 0.03 µM): 19.6%
viability, T/C (second compound 0.00949 µM, first compound 0.0949 µM): 21.2%
viability, T/C (second compound 0.00949 µM, first compound 0.3 µM): 21.9%
viability, T/C (second compound 0.03 µM, first compound 0.000949 µM): 20.4%
viability, T/C (second compound 0.03 µM, first compound 0.003 µM): 17%
viability, T/C (second compound 0.03 µM, first compound 0.00949 µM): 22.8%
viability, T/C (second compound 0.03 µM, first compound 0.03 µM): 21.7%
viability, T/C (second compound 0.03 µM, first compound 0.0949 µM): 19%
viability, T/C (second compound 0.03 µM, first compound 0.3 µM): 21.6%
viability, T/C (second compound 0.0949 µM, first compound 0.000949 µM): 19.5%
viability, T/C (second compound 0.0949 µM, first compound 0.003 µM): 20.3%
viability, T/C (second compound 0.0949 µM, first compound 0.00949 µM): 21%
viability, T/C (second compound 0.0949 µM, first compound 0.03 µM): 23.4%
viability, T/C (second compound 0.0949 µM, first compound 0.0949 µM): 19%
viability, T/C (second compound 0.0949 µM, first compound 0.3 µM): 23.7%
viability, T/C (second compound 0.3 µM, first compound 0.000949 µM): 20.7%
viability, T/C (second compound 0.3 µM, first compound 0.003 µM): 19.9%
viability, T/C (second compound 0.3 µM, first compound 0.00949 µM): 25.6%
viability, T/C (second compound 0.3 µM, first compound 0.03 µM): 20.9%
viability, T/C (second compound 0.3 µM, first compound 0.0949 µM): 21.4%
viability, T/C (second compound 0.3 µM, first compound 0.3 µM): 25.6%
